Assay results reported in publication PMC3956977, “Crystal structure of E. coli arginyl-tRNA synthetase and ligand binding studies revealed key residues in arginine recognition” (Protein & Cell, 2014).
Numbering of substitutions follows the chain as printed.

Legend:
Experiment in all cases: isothermal titration calorimetry
Assay type in all cases: binding
Details in all cases: read-out: Ka (M^-1) (converted)
[1] = biological target: T1, eArgRS (E. coli arginyl-tRNA synthetase, ArgRS) (Escherichia coli, UniProt P11875, R324A)
T1 construct: gene argS; full length, 577 residues; pET-28a-SUMO in E. coli BL21(DE3), N-terminal His-SUMO tag cleaved by Ulp1; mutants made in pET22b/ArgRS
T1 sequence (P11875 1-577 R324A): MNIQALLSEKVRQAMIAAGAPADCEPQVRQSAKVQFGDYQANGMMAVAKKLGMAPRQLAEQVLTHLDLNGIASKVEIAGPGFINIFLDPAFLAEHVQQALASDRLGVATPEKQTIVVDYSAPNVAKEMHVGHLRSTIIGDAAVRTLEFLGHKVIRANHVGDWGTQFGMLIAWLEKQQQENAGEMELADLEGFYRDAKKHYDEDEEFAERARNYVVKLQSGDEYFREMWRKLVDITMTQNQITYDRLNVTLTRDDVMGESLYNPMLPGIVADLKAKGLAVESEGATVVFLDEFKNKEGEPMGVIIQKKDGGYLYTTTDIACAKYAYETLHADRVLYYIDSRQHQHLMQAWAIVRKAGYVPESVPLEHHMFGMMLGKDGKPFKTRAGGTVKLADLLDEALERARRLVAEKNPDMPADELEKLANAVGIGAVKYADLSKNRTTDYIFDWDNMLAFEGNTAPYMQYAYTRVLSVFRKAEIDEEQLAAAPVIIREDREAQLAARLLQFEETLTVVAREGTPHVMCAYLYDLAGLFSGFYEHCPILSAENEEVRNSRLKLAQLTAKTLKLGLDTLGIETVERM
Description: (§1) isothermal titration calorimetry on eArgRS (E. coli arginyl-tRNA synthetase, ArgRS)

[2] = biological target: T2, eArgRS (E. coli arginyl-tRNA synthetase, ArgRS) (Escherichia coli, UniProt P11875)
T2 construct: gene argS; full length, 577 residues; pET-28a-SUMO in E. coli BL21(DE3), N-terminal His-SUMO tag cleaved by Ulp1; mutants made in pET22b/ArgRS
T2 sequence (P11875 1-577): T1 sequence (P11875 1-577 R324A) with A324R
Description: as §1

[3] = biological target: T3, eArgRS (E. coli arginyl-tRNA synthetase, ArgRS) (Escherichia coli, UniProt P11875, Y313A)
T3 construct: gene argS; full length, 577 residues; pET-28a-SUMO in E. coli BL21(DE3), N-terminal His-SUMO tag cleaved by Ulp1; mutants made in pET22b/ArgRS
T3 sequence (P11875 1-577 Y313A): T1 sequence (P11875 1-577 R324A) with Y313A, A324R
Description: as §1

N=C(N)NCCC[C@H](N)C(=O)O [L-arginine] showed a Kd [1] of 191 µM, a Kd [2] of 46.5 µM and a Kd [3] of 80.6 µM.
